Bridge positions count the residues as written; N and C are the ends. Square brackets hold non-standard residues; d marks the D form. Peptide text beside a SMILES is read from it. NMeF = CN[C@@H](Cc1ccccc1)C(=O)O; dOrn = NCCC[C@@H](N)C(=O)O
What was measured:
Kunming male mice [1] = experiment: Photothermal tail flick experiment, subcutaneous injection; type: in vivo; conditions: photothermal tail flick
Protocol: Two administration methods were used: peripheral subcutaneous administration and oral administration. Subsequently, the analgesic activity of the drug was studied using an acute pain model of photothermal tail flick in mice.
Subcutaneous administration on the back was chosen for subcutaneous administration (s.c.). A sterile 1 mL syringe was used and the drug with the volume of 0.1 mL/10 g was injected for administration. The back skin was grasped with the right hand, the needle was tilted in, and the drug was injected subcutaneously into the mouse's back. After the needle was inserted, shook it left and right, and observe to confirm that the needle had indeed entered the subcutaneous area to prevent the needle from puncturing the skin and leaking the drug.
The photothermal tail flick experiment is based on the experimental method summarized by D'Amour and Smith to optimize the experimental parameters. The experiment selected Kunming male mice with body weigh 21±2 g, and ambient temperature controlled at 22±2° C. The experimental mice were allowed to drink water freely and were moved from the breeding room to the experimental area for adaptation for 30 minutes before starting the experiment. Then the mice were grab with the right hand and the tail hang freely. Then the mice's tail were placed on a radiation light source, 2-3 mm away from the mice tail. The intensity of radiation heat was adjusted to the tail flick time of mice being 3-5 s, which is the basic pain threshold of photothermal tail flick. The irradiation time of the mice tail should not exceed 10 s to prevent scalding of the mice tail, which was the maximum latency for photothermal tail flick. After administration, time points of 10, 20, 30, 45, 60, 90, 120, 180, 240, 300, 360, and 420 minutes were selected to measure the tail flick latency of mice after administration.
The analgesic effect of drugs was generally evaluated using the maximum analgesic effect MPE (%), MPE (%)=100×[(pain threshold after administration−basic pain threshold)/(10 seconds−basic pain threshold)]. 50% effective dose (ED50) refers to the corresponding drug dose that causes a 50% effect. ED50 and 95% confidence interval were calculated using MPE (%) and the drug concentration that achieves the maximum analgesic effect MPE (%) by the statistical software GraphPad Prism 5.0. The difference in analgesic effects was statistically analyzed using one-way ANOVA (Dunnett test), *P<0.05, **P<0.01, and ***P<0.001 indicated significance of the difference between the group with only drug injected and the saline group.

Kunming male mice [2] = experiment: Analgesic tolerance assay, oral injection for 8 consecutive days; type: in vivo; conditions: 8 consecutive days of oral injection, tail flick latency
Protocol: The analgesic tolerance experiment was conducted by orally injecting compounds 1 and 11 for 8 consecutive days, and then identifying the changes in the analgesic tail flick threshold from the first day to the eighth day through a photothermal tail flick experiment, thus evaluating the pharmacological activity of compounds 1 and 11 in the present invention in terms of analgesic tolerance.
21±2 g Kunming male mice were selected for the experiment, and the mice were eat freely. Generally, the basic pain threshold of mice was measured on the first day, followed by oral injection of compounds 1 and 11 for 8 consecutive days. The pain threshold at different time points was measured on the first day, and only the pain threshold at the highest analgesic point was measured on the following 7 days.
The experimental data was represented by tail flick time. The analgesic tolerance of drugs was compared using the tail flick latency at the maximum analgesic effect time point of different compounds. The tail flick latency data was represented by mean±S.E.M. The differences of analgesic effects of […] administration for eight days in mice were analyzed using one-way ANOVA (Tukey HSD test). *P<0.05, **P<0.01, and ***P<0.001 indicated a significant difference in analgesic effects compared to the injection of the drug on the first day.

In the case of `CN1C(=O)CNC(=O)[C@H](NC(=O)[C@@H](N)Cc2ccc(O)cc2)CCCCNC(=O)C[C@@H](C(=O)N2CCC[C@H]2C(=O)N[C@@H](CCC(N)=O)C(=O)N[C@@H](CCCNC(=N)N)C(=O)N[C@@H](Cc2ccccc2)C(N)=O)NC(=O)[C@@H]1Cc1ccccc1` [Compound 1, Tyr-c[D-Lys-Gly-NMe-Phe-Asp]-Pro-Gln-Arg-Phe-NH2] (H-Y[dK]G[NMeF]DPQRF-NH2; lactam 2-5), the “ED50 value (95% confidence interval), analgesic activity” value (Kunming male mice [1]) is reported as 0.32 (0.27 to 0.38) μg/kg and the analgesic tolerance (Kunming male mice [2]) is reported as “no analgesic tolerance observed”.

For `CN1C(=O)CNC(=O)[C@H](NC(=O)[C@@H](N)Cc2ccc(O)cc2)CCCNC(=O)CC[C@@H](C(=O)N2CCC[C@H]2C(=O)N[C@@H](CCC(N)=O)C(=O)N[C@@H](CCCNC(=N)N)C(=O)N[C@@H](Cc2ccccc2)C(N)=O)NC(=O)[C@@H]1Cc1ccccc1` [Compound 11, Tyr-c^[2,5][D-Orn-Gly-NMe-Phe-Glu]-Pro-Gln-Arg-Phe-NH2] (H-Y[dOrn]G[NMeF]EPQRF-NH2; lactam 2-5), the analgesic tolerance (Kunming male mice [2]) was “no analgesic tolerance observed”.
